Test system: PBMCs from A*02:01 COVID-19 convalescent individuals
Type: cell-based, human

## YLQPRTFLL
  ELISpot response frequency: ~ 44%
  ELISpot: HLA-matched individuals responding / tested: 11 out of 25

— publication PMC11604954 (Nature Communications, 2024)
